From patent publication US7081449B2, “Pyrido[2,3-d]pyrimidine and pyrimido[4,5-d]pyrimidine nucleosides” (Valeant Research & Development, priority 2000, dated 2006)
pEC50: −log10 of the molar value.

What was measured:
Format in all cases: cell-based
[1] = tested on: Breast: MCF 7, NCI/ADR-RES, MDA-MB-435, BT-549, T-47D; experiment: Determination of EC50 in cancer cells, breast; conditions: Breast tumor cell lines; incubated at least 24 hours
Protocol: (§1) Cancer cells were incubated with 4-amino-5-oxo-8-(β-D-ribofuranosyl)pyrido[2,3-d]pyrimidine at various concentrations for a period of at least 24 hours and EC50 was determined. Table 1 gives in vitro activity of 4-amino-5-oxo-8-(β-D-ribofuranosyl)pyrido[2,3-d]pyrimidine in nM concentrations.

[2] = tested on: Prostate: PC-3, DU-145; experiment: Determination of EC50 in cancer cells, prostate; conditions: Homo sapiens, Prostate tumor cell lines, incubated at least 24 hours
Protocol: as §1

[3] = tested on: Kidney: 786-0, A498, ACHN, CAKI-1, RXF 393, UO-31; experiment: Determination of EC50 in cancer cells, kidney; conditions: Kidney tumor cell lines; incubated at least 24 hours
Protocol: as §1

[4] = tested on: Ovarian: IGROV1, OVCAR-3, OVCAR-4, OVCAR-5, SK-OV-3; experiment: Determination of EC50 in cancer cells, ovarian; conditions: Ovarian tumor cell lines; incubated at least 24 hours
Protocol: as §1

[5] = tested on: Melanoma: LOX IM VI, MALME-3M, M14, SK-MEL-2, SK-MEL-28, ACC-257, UACC-62; experiment: Determination of EC50 in cancer cells, melanoma; conditions: Melanoma cell lines; incubated at least 24 hours
Protocol: as §1

[6] = tested on: CNS: SF-268, SF-295, SF-539, SNB-19, SNB-75, U251; experiment: Determination of EC50 in cancer cells, CNS; conditions: CNS tumor cell lines; incubated at least 24 hours
Protocol: as §1

[7] = tested on: Colon: SW-620, KM 12, HT29, HCT-15, CHCT-116, HCC-2998, COLO-205; experiment: Determination of EC50 in cancer cells, colon; conditions: Colon tumor cell lines; incubated at least 24 hours
Protocol: as §1

[8] = tested on: Lung: NCI-H522, NCI-H460, NCI-H322M, NCI-H23, HOP-92, HOP-62, EKVX, A549; experiment: Determination of EC50 in cancer cells, lung; conditions: Lung tumor cell lines; incubated at least 24 hours
Protocol: as §1

[9] = tested on: Leukemia: SR, RPMI 8226, MOLT-4, K-562, HL-60, CCRF-CEM; experiment: Determination of EC50 in cancer cells, leukemia; conditions: Leukemia cell lines; incubated at least 24 hours
Protocol: as §1

[10] = tested on: Liver: PLC/PRF5, Hep3B, Huh7; experiment: Determination of EC50 in cancer cells, liver; conditions: Liver tumor cell lines; incubated at least 24 hours
Protocol: as §1

[11] = tested on: Pancreas: PaCa-2, PANC-1; experiment: Determination of EC50 in cancer cells, pancreas; conditions: Pancreas tumor cell lines; incubated at least 24 hours
Protocol: as §1

[12] = tested on: melanoma B16 and 140 cells, Leukemia cells (K562, M), and colon HT-29 cells; experiment: Anti-clonogenic activity in various cancer cells; conditions: FIG. 3; compared against Ecyd and Gemzar
Protocol: To determine the anti-clonogenic activity of contemplated compounds in various cancer cells experiments were conducted. […] Here again, 4-amino-5-oxo-8-(β-D-ribofuranosyl)pyrido[2,3-d]pyrimidine was used as a representative compound of contemplated compounds and compared against Ecyd and Gemzar.

[13] = tested on: NB4 cells (Leukemia); experiment: Induction of apoptosis, histone-DNA ELISA; conditions: FIGS. 4A and 4B
Protocol: (§2) In order to determine how contemplated compounds interact with cancer cells, NB4 cells (Leukemia) and Prostate 81 (prostate cancer cells) cells were incubated with 4-amino-5-oxo-8-(β-D-ribofuranosyl)pyrido[2,3-d]pyrimidine, Ecyd, and Gemzar, and apoptosis was monitored by histone-DNA ELISA.

[14] = tested on: Prostate 81 (prostate cancer cells); experiment: Induction of apoptosis, histone-DNA ELISA; conditions: Prostate 81 cells, FIGS. 4A and 4B
Protocol: as §2

[15] = tested on: K562 cells; experiment: Inhibition of RNA synthesis, H^3-Uridine incorporation; conditions: various time periods and concentrations, FIG. 5
Source text: RNA synthesis was monitored in K562 cells using H^3-Uridine incorporation following a general protocol as outlined below.

[16] = tested on: RNA Polymerase I; experiment: RNA Polymerase I dependent RNA synthesis (28S and 18S rRNA processing); conditions: FIG. 6
Protocol: (§3) To further investigate the influence of contemplated compounds (here again represented by 4-amino-5-oxo-8-(β-D-ribofuranosyl)pyrido[2,3-d]pyrimidine) on RNA synthesis dependent on RNA Polymerase I, II, and III, experiments were conducted.

[17] = tested on: RNA Polymerase III; experiment: RNA Polymerase III dependent RNA synthesis; conditions: FIG. 6
Protocol: as §3

[18] = tested on: RNA Polymerase II; experiment: RNA Polymerase II dependent RNA synthesis; conditions: FIG. 7
Protocol: as §3

[19] = tested on: ERK; experiment: MEK-ERK phosphorylation, autoradiograph, NB4 leukemic cells; conditions: FIG. 8
Protocol: (§4) To investigate the possibility of activation of the MEK-ERK signal transduction pathway by contemplated compounds an experiment was conducted. […] Consequently, it is contemplated that the compounds according to the inventive subject matter may induce apoptosis through activation of MEK (which can be abolished by inhibitors of the MEK-ERK pathway).

[20] = tested on: MEK; experiment: as above; conditions: FIG. 8
Protocol: as §4

[21] = tested on: Raf; experiment: as above; conditions: FIG. 8
Protocol: as §4

## Nc1ncnc2c1c(=O)ccn2[C@@H]1O[C@H](CO)[C@@H](O)[C@H]1O [4-amino-5-oxo-8-(β-D-ribofuranosyl)pyrido[2,3-d]pyrimidine]
[1]
  pEC50: 7.74
[2]
  pEC50: 7.72
[3]
  pEC50: 7.36
[4]
  pEC50: 7.68
[5]
  pEC50: 7.52
[6]
  pEC50: 6.90
[7]
  pEC50: 7.80
[8]
  pEC50: 7.17
[9]
  pEC50: 7.47
[10]
  pEC50: 6.54
[11]
  pEC50: 6.73
[12]
  anti-clonogenic activity: significant anti-clonogenic activity
[13]
  induction of apoptosis: induce apoptosis in a dose dependent manner
[14]
  induction of apoptosis: induce apoptosis in a dose dependent manner
[15]
  inhibition of RNA synthesis: inhibition of RNA synthesis
[16]
  inhibition of processing of 28S and 18S rRNA: may inhibit processing of 28S and 18S rRNA
[17]
  inhibition of RNA Polymerase III: fail to significantly inhibit RNA Polymerase III
[18]
  inhibition of RNA-Polymerase II dependent RNA synthesis: inhibit RNA-Polymerase II dependent RNA synthesis in a concentration dependent manner
[19]
  phosphorylation of ERK: phosphorylation of MEK and ERK
[20]
  phosphorylation of MEK: enhance phosphorylation of MEK
[21]
  phosphorylation of Raf: do not enhance phosphorylation of Raf
